Converted amounts (≈) assume the structure as drawn.

One series relates to L. lactis MG1363. Format: cell-based, Lactococcus lactis. Conditions: MG1363. On the procedure:
(§1) Each experiment was performed in triplicate.

A further series relates to S. aureus LMG10147. The class given is cell-based, Staphylococcus aureus. The note with it: LMG10147. On the procedure:
as §1

Series [1] concerns S. aureus LMG15975 (MRSA). The class given is cell-based, Staphylococcus aureus. Conditions: LMG15975. On the procedure: as §1
Another series has as its system E. faecium LMG11423. The class given is cell-based, Enterococcus faecium. Conditions: LMG11423. On the procedure: as §1
In series [2] the test system is E. faecium LMG16003 (VRE). The class given is cell-based, Enterococcus faecium. Conditions: LMG16003. On the procedure:
as §1

In series [3] the test system is E. faecalis LMG16216 (VRE). Format: cell-based, Enterococcus faecalis. The note with it: LMG16216. On the procedure: as §1
A short description of series [4]: Spot-on-lawn assay, peptide-lipid II complex formation. Format: binding, Lactococcus lactis. The note with it: L. lactis MG1363, purified lipid II 300 μM, 2 μL at edge of halo, overnight 30 °C. On the procedure: (§2) To evaluate the binding of peptide and lipid II or lipoteichoic acid (LTA), an overnight cultured L. lactis MG1363 was added to 0.8% GM17 (w/v, temperature 45 °C) at a final concentration of 0.1% (v/v), and then, the mixture was poured onto 10 mL plates. The binding of peptide and lipid II or LTA was further evaluated by spotting of purified lipid II (300 μM, 2 μL) or LTA (1 mg/mL, 2 μL) to the edge of the inhibition halo of antibiotics. Briefly, antimicrobials were loaded to the agar plate. After the antimicrobial solution drops had dried, lipid II or LTA was spotted to the edge of inhibition halo of antimicrobials. The plates were then incubated overnight at 30 °C after the drops had dried.

Series [5] in a line: Spot-on-lawn assay, peptide-LTA complex formation. Format: binding, Lactococcus lactis. The note with it: spot-on-lawn (LTA 1 mg/mL, 2 μL) and growth curves, L. lactis MG1363. On the procedure:
as §2

Series [6] can be described thus: Growth curve-based lipid II/LTA binding assay. The class given is cell-based, Lactococcus lactis. Conditions: L. lactis MG1363, 5 × MIC peptide, 2 µl lipid II, 6 hours, three replicates. On the procedure:
Screening the antibacterial activity of peptides by spot-on-lawn assay
To prepare the plates, an overnight culture of the strains was added to 0.8% LB agar or GM17agar (wt/vol) at 45 ℃ and mixed to a final concentration of 0.1% (vol/vol) before being poured onto the plates (10 ml each). Next, 5 µl of the precursor peptide and 1 µl of 1 mg/mL NisP were dropped onto the plates and left to dry before incubation. The plates were then incubated overnight at 37°C, except for L. lactis, which was incubated at 30°C.
Evaluation of (methyl)lanthionine formation
16 μL of phosphate-buffered saline (pH 7.4) was added to the samples followed by treatment with 2 μL of 5 mg/mL tris[2-carboxyethyl]phosphine for 30 min at room temperature. Next, 4.5 μL of 25 mg/mL N-ethylmaleimide was added to the samples, which were then incubated at room temperature for 2 h.
Subsequently, the samples were desalted using a C18 ZipTip (Millipore) according to the manufacturer’s instructions and subjected to MALDI-TOF MS analysis.
Growth curve and lipid II/LTA binding assay
Overnight cultures of L. lactis MG1363 were diluted to an OD 600 of 0.05 and added to a 96-well plate, which was incubated at 30°C. […] The growth curve was recorded over the following 6 hours using a microplate spectrophotometer under the same conditions, with three replicates used for each treatment.

Series [7] can be described thus: Thermal stability by residual antimicrobial activity. Format: physicochemical. Conditions: residual antimicrobial activity vs L. lactis 1363, agar well, triplicate. On the procedure: To investigate the impact of proteolytic enzymes, pH, and temperature on the antimicrobial activity, a representative strain of L. lactis 1363 was utilized. For the proteolytic enzyme assay, 40 μL of peptide (1 mg/mL) was incubated with or without final concentrations of 1 mg/mL proteolytic enzymes at room temperature for 3 h, followed by an activity test in the agar well. To determine pH stability, the pH was adjusted to 2, 4, 7, and 10 using 1 M HCl or NaOH. The temperature stability was assessed by incubating the peptide at 22, 50, 70, and 90 °C for a specified duration. All experiments were performed in triplicate.
Overnight cultures of the test strains were inoculated at a final concentration of 0.1% (v/v) into melted LB agar at 45 °C and then poured onto plates. After solidification, 8 mm wells were created and filled with 40 μL of the lantibiotic solution (1 mg/mL). The lantibiotics were activated by adding 5 μL of NisP directly to the well. The plates were then incubated overnight at 30 °C, and the zone of inhibition was measured. Zone diameters were calculated by subtracting the area of the well (πr^2) from the area of the zone (πr^2) and reported in millimeters. To determine the peptide concentration, purified and lyophilized peptides were resuspended in 0.05% aqueous acetic acid solution and quantified by HPLC following the protocol described by Schmitt et al.[44] […]

One may read the MIC as the least concentration at which growth counts as inhibited. Lower therefore signals a more susceptible organism. Take `C=C1NC(=O)[C@H]([C@@H](C)CC)NC(=O)C(NC(=O)C(=CC)NC(=O)[C@@H](N)[C@@H](C)CC)CSC[C@@H](C(=O)NC2C(=O)N[C@@H](C)C(=O)NCC(=O)N[C@H](C(=O)N[C@H](C(=O)NC3C(=O)NCC(=O)N[C@@H](C(C)C)C(=O)N[C@@H]([C@@H](C)CC)C(=O)N[C@@H](CCSC)C(=O)NC(=CC)C(=O)N[C@H](C(=O)N[C@@H](CCSC)C(=O)NC4CSC[C@@H](C(=O)N[C@@H](CCCCN)C(=O)O)NC(=O)CNC(=O)[C@H](CC(N)=O)NC4=O)CSC3C)[C@@H](C)CC)CSC2C)NC(=O)[C@H](CC(C)C)NC1=O` (some centres unmarked) [rombocin A]: the MIC was 0,78 μg/mL in the series on L. lactis MG1363; 100 µg/mL (≈ 42 µM) in the series on S. aureus LMG10147; 100 µg/mL (≈ 42 µM) in series [1]; 100 µg/mL (≈ 42 µM) against E. faecium LMG11423; 100 µg/mL (≈ 42 µM) in series [2]; 50 µg/mL (≈ 21 µM) in [3]. Further, the “binding to lipid II (effect of spotted lipid II on the inhibition halo)” value in series [4] was “reduction in the antimicrobial activity against L. lactis”. Also, the “binding to lipoteichoic acid (LTA)” value in series [5] is reported as “utilizes electrostatic interactions to interact with the cell walls of target bacteria”. The “effect of added lipid II on activity (growth curves)” value in series [6] was “reduced its activity”. In addition, the “incubation time to complete loss of activity” value in series [7] (90 °C) is given as 7 h. Further, in [7] (temperatures between 22 and 50 °C, up to 10 h), the reduction in activity result is “less than 30%”.

The values above are taken from PMC10804407, “Rombocin, a Short Stable Natural Nisin Variant, Displays Selective Antimicrobial Activity against Listeria monocytogenes and Employs a Dual Mode of Action to Kill Target Bacterial Strains” (ACS Synthetic Biology, 2024).
